Series [1] has as its system VERO (normal African green monkey kidney epithelial cells). The experiment in a line: Cytotoxicity assay (MTT), VERO. The class given is cell-based. The conditions noted are these: 48 h treatment, mean ± SE.
Description: (§3) RAW 264.7 (murine macrophages) and VERO (normal African green monkey kidney epithelial cells) lines were obtained from Banco de Células do Rio de Janeiro (BCRJ, RJ, Brazil) under the codes 0212 and 0245, respectively. Both were cultured in complete DMEM medium (10% FBS, 100 U/mL penicillin, 100 µg/mL streptomycin, and 3 µg/mL Fungizone®) at 37 °C and 5% CO2 atmosphere. After reaching subconfluence, the cells were washed twice with cold phosphate saline buffer (PBS, pH 7.2), detached by trypsinization, and seeded into 96-well microplates (10^5 cells/100 μL). […] The cells were further incubated under the same conditions for another 48 h. Drug-free cells cultured in DMEM served as positive controls of viability. The concentration of the solvent (DMSO) was normalized in all wells (1%) of treatment and control. Cell viability was assessed using a colorimetric assay based on the reduction of tetrazolium salt [69].
Series [2] concerns RAW 264.7 (murine macrophages). The experiment in a line: Cytotoxicity assay (MTT), RAW 264.7. The conditions noted are these: 48 h treatment, MTT; mean ± SE.
Description: as §3
Series [3] concerns sheep red blood cells (RBC). The conditions noted are these: for hemolytic activity (CH50) RBC: sheep RBC, 1 h at 37 °C, mean ± SE.
Description: Blood samples were washed four times with cold PBS to remove plasma, and a 4% (v/v) RBC suspension was prepared in the same buffer. […] After a 1 h incubation at 37 °C, the reaction was stopped by adding 200 µL of PBS. A positive hemolysis control was performed by adding 200 µL of distilled water to untreated cells. The microplates were then centrifuged (2000 rpm/5 min), and 200 µL of the supernatants were transferred to new 96-well microplates for spectrophotometric analysis at 540 nm (SpectraMax M2, Molecular Devices, CA, USA). The percentage of hemolysis for each treatment was calculated relative to the hemolysis control (100%), and the 50% hemolytic concentration (HC50) was determined through regression analysis of the dose–response curves.
For series [4], the system named is Leishmania amazonensis promastigotes. The experiment in a line: Anti-promastigote activity (resazurin), L. amazonensis. The class given is cell-based. Conditions: 48 h. The protocol: (§1) Promastigote forms of Leishmania infantum (MHOM/BR/1974/PP75) and Leishmania amazonensis (IFLA/BR/1967/PH8) were cultured in complete Schneider’s Insect Medium (SIM, 10% FBS). […] Drug-free parasite cultures served as a positive control of viability. […] After 24 h of promastigote incubation, 100 μM resazurin was added, and the cells were cultured for an additional 24 h. At 48 h of the treatment, parasites were assessed fluorometrically (555 nm excitation and 585 nm emission) for viability using a microplate reader Spectra Max M2 (Molecular Devices, CA, USA). Dose–response curves were then generated, and the half-maximal inhibitory concentrations (IC50) for each treatment were determined through regression analysis.

Series [5] has as its system Leishmania infantum promastigotes. The experiment in a line: Anti-promastigote activity (resazurin), L. infantum. Conditions: for L. infantum IC50 ± SE: promastigotes, resazurin; for IC50: Leishmania infantum. It is filed as cell-based. The procedure: as §1
(Alamar Blue is a resazurin reagent that responds to reducing activity.)

For series [6], the system named is intracellular L. infantum amastigotes. The experiment in a line: Inhibition of intracellular amastigotes in infected RAW 264.7 macrophages. Conditions: for number of amastigotes per 100 infected macrophages: 20 μg/mL, 48 h, vs untreated control, p < 0.05; for IC50: Leishmania infantum. It is filed as cell-based, Leishmania infantum. The procedure:
(§2) After adhesion, the cells were incubated for 24 h in the presence of L. infantum promastigotes at a ratio of 10 parasites per macrophage at 35 °C in a 5% CO2 atmosphere. After the interaction period, the wells were washed with PBS to remove non-internalized promastigotes, and the infected macrophages were incubated for 24 h under the same conditions. […] Untreated infected macrophages served as a positive control for amastigote viability. After 48 h of treatment, the supernatant was collected, and the coverslips were stained with Panoptic. […] The IC50 was then calculated using dose–response curve regression analysis.

The test system of series [7] is NO production by RAW 264.7 macrophages infected with L. infantum. In words: NO production (Griess reaction) by L. infantum-infected macrophages. Conditions: 48 h treatment, compared to untreated control. The class given is cell-based, murine. The protocol:
as §2
The supernatant from L. infantum-infected macrophages, treated as described in Section 3.11, was collected to assess NO production using the Griess reaction. In short, 100 µL of the collected supernatants were transferred to 96-well microplates, followed by the addition of an equal volume of Griess reagent (0.5% sulfanilamide and 0.05% naphthylenediamine dihydrochloride in 5% phosphoric acid) to each well. The plates were then incubated at room temperature in the dark for 20 min. After incubation, the absorbance was measured at 570 nm.
In general terms: The Griess reaction detects nitrite, a stable product of nitric oxide.

For series [8], the target named is recombinant arginase from L. infantum (LiARG) (Leishmania infantum, UniProt A4IB49). The experiment in a line: LiARG inhibition assay (urea quantification). It is filed as biochemical. The procedure: The expression and purification of recombinant arginase from L. infantum (LiARG) were previously detailed by our group. LiARG inhibition was performed by incubating different concentrations (4.7 to 100 μg/mL) of the samples in the enzymatic reaction solution: 50 mM CHES buffer (pH 9.5) and 50 mM L-arginine. The enzymatic reaction was initiated by adding LiARG (10 μg/mL) and allowed to proceed for 5 min at 37 °C before being stopped on ice. Subsequently, enzymatic activity was assessed by measuring the conversion of L-arginine to urea using a commercial kit (Labtest UREA CE kit®, Lagoa Santa, MG, Brazil). The amount of urea produced in each reaction was determined spectrophotometrically at 600 nm, following its hydrolysis into ammonia and conversion into indophenol blue. […] From that, the IC50 was determined by regression analysis.

Another series has as its system human arginase I. Details: method as in PMID 37462864. Conditions: cited from earlier work.
A further series concerns mouse arginase. The conditions noted are these: colorectal cancer model; cited from earlier work.
Series [9] in a line: Cytotoxicity assay (MTT), RAW 264.7. Conditions: mouse, RAW 264.7 macrophage cells.
Description: as §3
The subject of series [10] is promastigotes and axenic amastigotes of L. donovani. Conditions: 15 µM; cited from earlier work.
Series [11] relates to L. donovani promastigotes. Conditions: read-out: IC50 against L. donovani promastigotes; cited from earlier work.
In the next series the test system is intracellular amastigote. The conditions noted are these: 20 µM, within 24 h of treatment; cited from earlier work.
Series [12] deals with L. major promastigotes. Details: method as in PMID 10865470. Conditions: cited from earlier work.
For the next series, the system named is L. braziliensis. Conditions: topical 1.5 mg/day, hamsters infected with L. braziliensis; cited from earlier work.
Series [13] concerns L. major promastigotes. The conditions noted are these: 15 µM; cited from earlier work.
The test system of a further series is J774.A.1 macrophages. Details: method as in PMID 35325685. The conditions noted are these: cited from earlier work.
For another series, the system named is Pgp. Conditions: affected the uptake of rhodamine-123 and digoxin; cited from earlier work.

Values after ≈ are worked out from the molar mass of the structure shown. Where two headings read alike, the source gives them in different places. Marks after values point to notes of the source that are not given here.

Data on eight compounds can be found in paper PMC12195615, “In Vitro and In Silico Assessments of Curcuminoids and Turmerones from Curcuma longa as Novel Inhibitors of Leishmania infantum Arginase” (Pharmaceuticals, 2025).

Turning to `O.O.O.O=C([O-])C(O)C(O)C(=O)[O-].O=C([O-])C(O)C(O)C(=O)[O-].[K+].[K+].[Sb].[Sb]` (stereo not drawn) [PAT, potassium antimony(III) tartrate hydrate, reference compound], the “Cytotoxicity (CC50) VERO” value in series [1] is on record as 23.9 ± 1.5 ^b μg/mL. In series [2], the “Cytotoxicity (CC50) RAW 264.7” value is on record as 30.8 ± 0.73 ^b μg/mL. Further, in series [3] (at the highest concentration tested (100 μg/mL)), the hemolytic potential entry was “did not show hemolytic potential”. The “hemolytic activity (CH50) RBC” value in series [3] is >100 µg/mL. The “L. amazonensis IC50 ± SE” value in series [4] (promastigotes, resazurin) is reported as 11.9 ± 3.1 ^c,d µg/mL. For the same compound, the “L. infantum IC50 ± SE” value in [5] (48 h) is reported as <6.25 µg/mL. The “number of amastigotes per 100 infected macrophages” value in [6] is given as “significantly reduced”. In addition, in series [6] (infected RAW 264.7, 48 h treatment), the “IC50 against intracellular L. infantum amastigotes” value is 18.9 ± 4.06 µg/mL. Further, the NO levels entry in series [7] was “increased NO levels at 10 and 20 µg/mL”.

Turning to `O=c1c(O)c(-c2ccc(O)c(O)c2)oc2cc(O)cc(O)c12` [Quercetin (7), Quercetin, reference compound], in series [8], the IC50 is < 20.7 µM.

On to `CC(C)C1=C[C@H]2[C@@H](CC[C@]2(C)O)[C@](C)(O)CC1` [alismoxide], for which, in the series on human arginase I, the “inhibitory activity against human arginase I” value is recorded as “showed inhibitory activity”.

As usually defined, the CC50 is the concentration that lowers cell viability or growth by half. Turning to `COc1cc(/C=C/C(=O)CC(=O)/C=C/c2ccc(O)c(OC)c2)ccc1O` [compound 1, curcumin], in the series with mouse arginase, the “reduction of mouse arginase activity” value is listed as 73%. The compound further registered a CC50 at 48 h in series [9] of 69.8 ± 2.8 µg/mL (≈ 189 µM). In addition, the “hemolytic activity (CH50) RBC” value in [3] was >200 µg/mL. Also, in series [10], the “growth of promastigotes and axenic amastigotes of L. donovani” value is on record as “did not inhibit the growth”. In addition, the IC50 in [8] was 47.6 µM; in [11], 25 µM; in series [4] (Leishmania amazonensis, read-out: L. amazonensis IC50 ± SE) it was 5.5 ± 0.45 µg/mL (≈ 14.9 µM); in series [5] (48 h, read-out: L. infantum IC50 ± SE, promastigotes, 48 h, resazurin) it was 15 µg/mL; in [5] (read-out: IC50 against L. infantum promastigotes (molar), converted from 15.5 µg/mL), ~42 µM; in series [6] (RAW264.7, 48 h, read-out: IC50 against intracellular L. infantum amastigotes), 13.6 µg/mL. In addition, the IC50 in [6] (RAW264.7, converted from 13.6 µg/mL, read-out: IC50 against L. infantum intracellular amastigotes) is ~36.9 µM. For the same compound, the “L. infantum IC50 ± SE” value in [5] (48 h, listed as Curcumin (1)) is given as 15.5 ± 1.7 ^c µg/mL. Moreover, in the series on intracellular amastigote, the “reduction of intracellular amastigote load” value is given as 85%. Further, the “IC50 against L. major promastigotes” value with L. major promastigotes [12] is given as 7.8 ± 3.3 µg/mL (≈ 21.2 µM). Moreover, the therapeutic response with L. braziliensis is reported as 83%. Moreover, the “growth of L. major promastigotes” value in the series with L. major promastigotes [13] is recorded as “did not inhibit the growth”. The “number of amastigotes per 100 infected macrophages” value in series [6] is “significantly reduced”. Further, the NO levels entry in series [7] is reported as “reduced NO levels at concentrations starting from 5 µg/mL”.

Take `COc1cc(/C=C/C(O)=C/C(=O)/C=C/c2ccc(O)cc2)ccc1O` [compound 2, demethoxycurcumin]: in the series on L. major promastigotes [12], the “IC50 against L. major promastigotes” value is on record as 14.1 ± 4.8 µg/mL (≈ 41.7 µM).

Regarding `O=C(/C=C/c1ccc(O)cc1)CC(=O)/C=C/c1ccc(O)cc1` [compound 3, bisdemethoxycurcumin], in the series with L. major promastigotes [12], the “IC50 against L. major promastigotes” value is recorded as 21.5 ± 6.9 µg/mL (≈ 69.7 µM).

Take `CC(C)=CC(=O)C[C@H](C)c1ccc(C)cc1` [compound 4, ar-turmerone]: in the series with J774.A.1 macrophages, the “CC50 J774.A.1 macrophages” value is 720.06 µg/mL (≈ 3330 µM).

As for `CC(C)=CC(=O)C[C@H](C)C1C=CC(C)=CC1` (stereo partly drawn) [compound 5, α-turmerone], the Pgp inhibition result in the series with Pgp is “Pgp inhibitor”.
